Test results taken from patent publication US9580395B2, “Compositions of dual thyrointegrin antagonists and use in vascular-associated disorders” (Vascular Vision Pharmaceutical Company, priority 2009, dated 2017).

Experiments:
[1] = tested on: angiogenesis-induced by the growth factor basic fibroblast growth factor (FGF); assay: Inhibition of FGF-induced angiogenesis in the chick chorioallantoic membrane (CAM) model; format: in vivo; settings: Gallus gallus; for inhibition at 0.25 µg/mL: FGF + compound 0.25 μg/ml; for inhibition at 250 µg/mL: 10 μl at 0.25 mg/ml added to FGF impregnated filter
Method: To investigate the structure-activity relationships of novel dual Thyrointegrin inhibitors of the present invention, the effect of each compound on angiogenesis-induced by the growth factor basic fibroblast growth factor (FGF) was assessed in the CAM model as depicted in Table 1.
The data in Table 1 represents a mean±standard deviation (SD), n=8 as compared to FGF alone (p<0.001; 10 μl from the different test compounds were added to the FGF impregnated sterile filter).
The CAM system is a widely-used model in which the chick embryonic membrane is exposed to stimulatory and inhibitory compounds. Ten day-old fertilized chicken eggs (Sunrise Farms Inc, Catskill, N.Y.) were incubated at 37° C. and 55% relative humidity. In the dark, with the help of a candling lamp, a small hole was punctured in the area of the shell covering the air sac using a hypodermic needle. A second hole was punctured on the wider side of the egg above an avascular area of the embryonic membrane. An artificial air sac was created below the second hole by gently applying a vacuum to the first hole using a small rubber squeeze bulb. The vacuum caused the separation of the CAM from the shell. A window of approximately 1.0 cm^2 was cut in the shell over the dropped CAM with the use of a mini drill. The underlying CAM was accessed through this small window. Filter disks were punched from filter paper #1 (Whatman International, Ltd, United Kingdom), and then soaked in 3.0 mg/mL cortisone acetate solution (in 95% ethanol) and air-dried under sterile conditions. To induce angiogenesis, sterile filter disks were saturated with FGF and placed on the CAM using sterile forceps. As a control, disks were saturated with PBS without calcium or magnesium. The window was sealed with Highland Brand transparent tape. After 1 hour, 10 μL of inhibitor were applied topically to the FGF-stimulated CAM. After 48 hours, CAM tissue directly beneath the filter disk was harvested and placed in a 35-mm petri dish for evaluation of angiogenesis. Eight eggs were used per treatment.
Digital Imaging and analysis: CAMs in petri dishes were examined using a SV6 stereomicroscope (Carl Zeiss Microlmaging, Inc) at 50× magnification. Digital images were captured using a 3-CCD color video camera system (Toshiba America, Inc, New York, N.Y.). The images were analyzed using Image-Pro Plus (Media Cybernetics, Inc). The number of branch points within a circular region superimposed on the area of the filter disk was counted for each treatment condition.

αvβ3 = αvβ3 (Homo sapiens, UniProt P05106+P06756); assay: Inhibition of αvβ3-mediated binding in a specific cell adhesion assay; format: cell-based; settings: at 100 nM
αvβ3, sequence (P06756 31-889 limits assumed): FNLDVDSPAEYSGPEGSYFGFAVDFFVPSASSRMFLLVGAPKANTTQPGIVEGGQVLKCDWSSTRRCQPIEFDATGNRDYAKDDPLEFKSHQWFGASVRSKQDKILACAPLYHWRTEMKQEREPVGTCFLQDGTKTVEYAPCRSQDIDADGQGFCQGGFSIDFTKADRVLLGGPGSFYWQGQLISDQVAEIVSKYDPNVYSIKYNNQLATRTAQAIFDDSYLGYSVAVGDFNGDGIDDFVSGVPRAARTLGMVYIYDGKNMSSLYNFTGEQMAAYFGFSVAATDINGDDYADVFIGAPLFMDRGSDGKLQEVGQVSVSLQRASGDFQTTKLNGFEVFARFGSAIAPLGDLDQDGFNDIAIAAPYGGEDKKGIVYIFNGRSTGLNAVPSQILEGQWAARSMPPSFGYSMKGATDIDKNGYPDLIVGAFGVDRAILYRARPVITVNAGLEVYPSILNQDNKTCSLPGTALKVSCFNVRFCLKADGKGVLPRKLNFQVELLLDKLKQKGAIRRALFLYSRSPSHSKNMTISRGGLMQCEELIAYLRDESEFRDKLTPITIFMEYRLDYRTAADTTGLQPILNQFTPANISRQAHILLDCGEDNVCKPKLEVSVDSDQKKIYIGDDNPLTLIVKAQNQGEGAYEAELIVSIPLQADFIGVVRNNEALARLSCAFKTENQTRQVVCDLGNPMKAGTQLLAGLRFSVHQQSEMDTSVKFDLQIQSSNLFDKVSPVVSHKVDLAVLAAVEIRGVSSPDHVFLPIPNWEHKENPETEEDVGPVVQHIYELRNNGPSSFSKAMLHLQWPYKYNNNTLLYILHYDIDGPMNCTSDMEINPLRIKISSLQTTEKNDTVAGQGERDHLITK
αvβ3, sequence (P06756 891-1048 partner limits assumed): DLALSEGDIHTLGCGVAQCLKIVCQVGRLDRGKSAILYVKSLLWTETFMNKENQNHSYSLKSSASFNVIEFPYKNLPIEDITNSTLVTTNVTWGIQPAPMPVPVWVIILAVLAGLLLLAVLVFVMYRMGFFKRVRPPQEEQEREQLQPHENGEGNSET
αvβ3, sequence (P05106 27-788): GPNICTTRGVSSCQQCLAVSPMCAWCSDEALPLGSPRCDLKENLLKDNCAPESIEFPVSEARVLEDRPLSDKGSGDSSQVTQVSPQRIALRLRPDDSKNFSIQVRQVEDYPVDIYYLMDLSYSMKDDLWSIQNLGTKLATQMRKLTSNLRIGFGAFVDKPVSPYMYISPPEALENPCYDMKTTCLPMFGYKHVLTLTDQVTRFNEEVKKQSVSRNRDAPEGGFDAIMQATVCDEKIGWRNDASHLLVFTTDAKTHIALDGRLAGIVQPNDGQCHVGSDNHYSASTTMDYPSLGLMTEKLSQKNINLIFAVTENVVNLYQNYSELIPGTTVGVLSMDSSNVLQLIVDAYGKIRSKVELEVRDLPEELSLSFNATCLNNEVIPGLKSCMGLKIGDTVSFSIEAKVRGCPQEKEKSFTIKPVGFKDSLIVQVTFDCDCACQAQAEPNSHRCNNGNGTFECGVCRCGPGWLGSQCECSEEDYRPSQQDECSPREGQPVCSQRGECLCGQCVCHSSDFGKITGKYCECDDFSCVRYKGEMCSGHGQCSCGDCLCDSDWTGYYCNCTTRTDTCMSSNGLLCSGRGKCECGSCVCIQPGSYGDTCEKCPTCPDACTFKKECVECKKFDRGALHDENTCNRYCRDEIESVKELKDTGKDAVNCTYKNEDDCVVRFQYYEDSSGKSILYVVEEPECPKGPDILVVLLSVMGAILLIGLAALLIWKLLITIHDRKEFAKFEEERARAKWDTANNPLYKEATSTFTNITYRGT

[2] = molecular target: cell surface receptor αvβ3 (Homo sapiens, UniProt P05106+P06756); settings: literature (Rebbaa et al. 2008); cited from earlier work
cell surface receptor αvβ3, sequence (P06756 31-889 limits assumed): as the sequence (P06756 31-889 limits assumed) above
cell surface receptor αvβ3, sequence (P06756 891-1048 partner limits assumed): as the sequence (P06756 891-1048 partner limits assumed) above
cell surface receptor αvβ3, sequence (P05106 27-788): as the sequence (P05106 27-788) above

[3] = 10 μl on FGF filter, mean ± SD, n=8, vs FGF alone
[4] = post-ester hydrolysis to make the free acid

inhibition at 0.1 µM (αvβ3) | inhibition at 0.1 µM (αvβ3; [4]) | SMILES | inhibition at 250 µg/mL [1] | inhibition at 250 µg/mL [1, 4] | further results
 |  | NC(=O)NCCOc1c(I)cc(Oc2c(I)cc(CC(=O)O)cc2I)cc1I [compound 22, (4-{4-[2-(Carbamoylamino)ethoxy]-3,5-diiodophenoxy}-3,5-diiodophenyl)acetic acid] |  |  | inhibition at 0.25 µg/mL [1, 3]: 74 ± 13%; melting point: 267 °C
0% |  | COC(=O)Cc1cc(I)c(Oc2cc(I)c(OCCCN3CCSCC3)c(I)c2)c(I)c1 [compound 35] | 0% |  | 
1% | 100% | CCN(CC)CCCOc1c(I)cc(Oc2c(I)cc(CC(=O)OC)cc2I)cc1I [compound 37] | 0% | 83% | 
 |  | NC(N)=NCCOc1c(I)cc(Oc2c(I)cc(CC(=O)[O-])cc2I)cc1I.[Li+] [compound 21, Lithium [4-(4-{2-[(diaminomethylene)amino]ethoxy}-3,5-diiodophenoxy)-3,5-diiodophenyl]acetate] |  |  | inhibition at 0.25 µg/mL [1, 3]: 75 ± 10%; melting point: 133 °C
 | 93 ± 8% | O=C(O)Cc1cc(I)c(Oc2cc(I)c(OCCCN3CCSCC3)c(I)c2)c(I)c1 [compound 36] |  | 89 ± 10% | 
0% |  | COC(=O)Cc1cc(I)c(Oc2cc(I)c(OCCCN)c(I)c2)c(I)c1 [compound 31] | 0% |  | 
 | 100% | NCCCOc1c(I)cc(Oc2c(I)cc(CC(=O)O)cc2I)cc1I [compound 32] |  | 88 ± 8% | 
0% |  | COC(=O)Cc1cc(I)c(Oc2cc(I)c(OCCCNCc3cccnc3)c(I)c2)c(I)c1 [compound 33] | 0% |  | 
 |  | O=C(O)Cc1cc(I)c(Oc2cc(I)c(O)c(I)c2)c(I)c1 [Tetrac, [4-(4-Hydroxy-3,5-diiodophenoxy)-3,5-diiodophenyl]acetic acid, reference compound] |  |  | inhibition at 10 µg/mL ([1]; FGF + compound 10 μg/ml, 10 μl on FGF filter, mean ± SD, n=8, vs FGF alone): 85 ± 11%; affinity of binding to αvβ3 [2]: weak affinity
66 ± 8% |  | CC(C)(C)OC(=O)NCCCOc1c(I)cc(Oc2c(I)cc(CC(=O)O)cc2I)cc1I [compound 30] | 75 ± 7% |  | 
 | 68 ± 7% | O=C(O)Cc1cc(I)c(Oc2cc(I)c(OCCCNCc3cccnc3)c(I)c2)c(I)c1 [compound 34] |  | 95 ± 11% | 
 |  | NCCCOc1c(I)cc(Oc2c(I)cc(CC(=O)O)cc2I)cc1I [compound 23, {4-[4-(3-aminopropoxy)-3,5-diiodophenoxy]-3,5-diiodophenyl}acetic acid] |  |  | inhibition at 0.25 µg/mL [1, 3]: 88 ± 11%
